This passage reports IC50 results from US20260224589A1 (priority 2023, published 2026).

Like-named read-outs stand apart in the source and are kept apart here. Some results are limits rather than exact numbers.

The test system of this experiment is AsPC-1 cells. Nature of the experiment: phospho-ERK HTRF assay in AsPC-1 cells, 4 h treatment. The experiment is classed as cell-based. For orientation: In TR-FRET formats the signal depends on donor and acceptor labels being close together.
[1] abbreviates: Homo sapiens, ASPC1, AsPC-1, 4h, Table 1b, read-out: PERK IC50 (AsPC-1, 4h).
Setting [2] is: Homo sapiens, ASPC1, AsPC-1, 4H, Table 1a class column, read-out: pERK IC50 activity range (*).
The mark [3] stands for this setting: Homo sapiens, ASPC1, AsPC-1, 4H, Table 1a, read-out: PERK IC50 (AsPC-1, 4H).

What is called IC50 is the midpoint of a concentration-inhibition curve. `CN(C)C(=O)c1nn2c(c1Cl)CN(c1nc(OC[C@@]34CCCN3C/C(=C\F)C4)nc3c1CO[C@H](c1cc(N)cc(Cl)c1C(F)(F)F)C3)CCC2` [compound 235, 5-((S)-7-(5-amino-3-chloro-2-(trifluoromethyl)phenyl)-2-(((S,Z)-2-(fluoromethylene)tetrahydro-1H-pyrrolizin-7a(5H)-yl)methoxy)-7,8-dihydro-5H-pyrano[4,3-d]pyrimidin-4-yl)-3-chloro-N,N-dimethyl-5,6,7,8-tetrahydro-4H-pyrazolo[1,5-a][1,4]diazepine-2-carboxamide]: the 50% inhibitory concentration (IC50) under setting [1] is < 0.01 µM. `Nc1cc(Cl)c(C(F)(F)F)c([C@@H]2Cc3nc(OC[C@@]45CCCN4C/C(=C\F)C5)nc(N4CCCn5nc(C(=O)N6CCCC6)c(Cl)c5C4)c3CO2)c1` [compound 422]: under setting [1], the IC50 was < 0.01 µM. With `Nc1ccc(C(F)(F)F)c([C@@H]2Cc3nc(OC[C@@]45CCCN4C[C@H](F)C5)nc(N4CCNC(=O)CC4)c3CO2)c1F` [compound 205], the IC50 was > 0.5 µM under setting [2] and > 10 µM under setting [3]. On to `CN(C)C(=O)n1cc2c(n1)CCCN(c1nc(OC[C@@]34CCCN3C[C@H](F)C4)nc3c1COC(c1c(C(F)(F)F)ccc(N)c1F)C3)C2` (some centres unmarked) [compound 228], for which the IC50 is, setting by setting: under setting [2], > 0.5 µM; under setting [3], 3.07 µM. For `Cc1cc(N)cc([C@@H]2Cc3nc(OC[C@@]45CCCN4C/C(=C\F)C5)nc(N4CCCn5nc(C(=O)N6CCCC6)cc5C4)c3CO2)c1C(F)(F)F` [compound 404], under setting [2], the IC50 was in the range of 0.01 to 0.03 µM.

As for `CON(C)C(=O)c1nn2c(c1Cl)CN(c1nc(OC[C@@]34CCCN3C[C@H](F)C4)nc3c1COC(c1cc(N)cc(Cl)c1C(F)(F)F)C3)CCC2` (some centres unmarked) [compound 452], under setting [2], the IC50 lay in the range of 0.01 to 0.03 µM. `CC#Cc1cc(N)c(F)c([C@@H]2Cc3nc(OC[C@@]45CCCN4C[C@H](F)C5)nc(N4CCCn5nc(C(=O)N(C)C)c(Cl)c5C4)c3CO2)c1C(F)(F)F` [compound 435]: the IC50 under setting [1] is < 0.01 µM. Regarding `COc1c(C(=O)N(C)C)nn2c1CN(c1nc(OC[C@@]34CCCN3C[C@H](F)C4)nc3c1COC(c1c(F)c(N)cc(Cl)c1C(F)(F)F)C3)CCC2` (some centres unmarked) [compound 249], the half-maximal inhibitory concentration (IC50) is 0.101 to 0.5 µM under setting [2] and 0.113 µM under setting [3]. For the molecule `CC#Cc1cc(N)cc([C@@H]2Cc3nc(OC[C@@]45CCCN4C/C(=C\F)C5)nc(N4CCCn5nc(C(=O)N6CCCC6)c(C)c5C4)c3CO2)c1C(F)(F)F` [compound 429], the IC50 under setting [1] is < 0.01 µM.

On to `Nc1ccc(C(F)(F)F)c(C2Cc3nc(OC[C@@]45CCCN4C[C@H](F)C5)nc(N4CCCC(=O)CC4)c3CO2)c1F` (some centres unmarked) [compound 206], for which the IC50 reads like this: under setting [2], > 0.5 µM; under setting [3], > 10 µM. For `CCN(C)C(=O)c1nn2c(c1Cl)CN(c1nc(OC[C@@]34CCCN3C/C(=C\F)C4)nc3c1CO[C@H](c1c(F)c(N)cc(Cl)c1C(F)(F)F)C3)CCC2` [compound 432], the IC50 under setting [1] is < 0.01 µM. `CN(C)C(=O)c1nn2c(c1Cl)CN(c1nc(OC[C@@]34CCCN3C/C(=C\F)C4)nc3c1CO[C@H](c1cc(N)cc(F)c1C(F)(F)F)C3)CCC2` [compound 410]: the IC50 under setting [1] was < 0.01 µM.

For the molecule `Cc1cc(N)cc(C2Cc3nc(OC[C@@]45CCCN4C/C(=C\F)C5)nc(N4CCCn5nc(C(=O)N(C)C)c(Cl)c5C4)c3CO2)c1C(F)(F)F` (some centres unmarked) [compound 240], under setting [1], the IC50 is < 0.01 µM.

With `CN(C)C(=O)c1nn2c(c1Cl)CN(c1nc(OC[C@@]34CCCN3C[C@H](F)C4)nc3c1CO[C@H](c1c(F)c(N)cc(F)c1C(F)(F)F)C3)CCC2` [214a, 5-((S)-7-(3-amino-2,5-difluoro-6-(trifluoromethyl)phenyl)-2-(((2R,7aS)-2-fluorotetrahydro-1H-pyrrolizin-7a(5H)-yl)methoxy)-7,8-dihydro-5H-pyrano[4,3-d]pyrimidin-4-yl)-3-chloro-N,N-dimethyl-5,6,7,8-tetrahydro-4H-pyrazolo[1,5-a][1,4]diazepine-2-carboxamide], the IC50 under setting [1] is < 0.01 µM. Turning to `[2H]C([2H])([2H])N(C(=O)c1nn2c(c1Cl)CN(c1nc(OC[C@@]34CCCN3C[C@H](F)C4)nc3c1CO[C@@H](c1c(F)c(N)cc(Cl)c1C(F)(F)F)C3)CCC2)C([2H])([2H])[2H]` [250b], the half-maximal inhibitory concentration (IC50) under setting [2] lay within 0.01 to 0.03 µM.

Regarding `Nc1ccc(C(F)(F)F)c(C2Cc3nc(OC[C@@]45CCCN4C[C@H](F)C5)nc(N4CCNCC(=O)C4)c3CO2)c1F` (some centres unmarked) [compound 210], the half-inhibitory concentration (IC50) runs as follows: (AsPC-1, 4H, Table 1a class column, read-out: pERK IC50 activity range (*)) > 0.5 µM; (AsPC-1, 4H, Table 1a, read-out: PERK IC50 (AsPC-1, 4H)) > 10 µM. Take `CN(C)C(=O)c1nn2c(c1Cl)CN(c1nc(OC[C@@]34CCCN3CC(=C(F)F)C4)nc3c1CO[C@@H](c1c(C(F)(F)F)ccc(N)c1F)C3)CCC2` [231b, 5-((R)-7-(3-amino-2-fluoro-6-(trifluoromethyl)phenyl)-2-(((S)-2-(difluoromethylene)tetrahydro-1H-pyrrolizin-7a(5H)-yl)methoxy)-7,8-dihydro-5H-pyrano[4,3-d]pyrimidin-4-yl)-3-chloro-N,N-dimethyl-5,6,7,8-tetrahydro-4H-pyrazolo[1,5-a][1,4]diazepine-2-carboxamide]: the IC50 was > 0.5 µM under setting [2] and > 10 µM under setting [3]. Consider `C[C@@]1(O)COCCN(c2nc(OC[C@]34CCCN3C[C@@H](C=C(F)F)C4)nc3c2CO[C@H](c2cc(N)cc(Cl)c2C(F)(F)F)C3)C1` [compound 457], for which, under setting [1], the IC50 is < 0.01 µM. On the same count and under the same terms, the result for `Cc1c(C(=O)N2CCCC2)nn2c1CN(c1nc(OC[C@@]34CCCN3C/C(=C\F)C4)nc3c1CO[C@H](c1cc(N)cc(Cl)c1C(F)(F)F)C3)CCC2` [compound 421] reads < 0.01 µM.

As for `Cc1cc(N)cc([C@@H]2Cc3nc(OC[C@@]45CCCN4CC(=C(F)F)C5)nc(N4CCCn5nc(C(=O)N(C)C)c(C)c5C4)c3CO2)c1C(F)(F)F` [compound 416], the IC50 under setting [1] is < 0.01 µM. `CCc1c(C(=O)N(C)C)nn2c1CN(c1nc(OC[C@@]34CCCN3C[C@H](F)C4)nc3c1CO[C@H](c1cc(N)cc(Cl)c1C(F)(F)F)C3)CCC2` [compound 409]: the half-maximal inhibitory concentration (IC50) under setting [2] was 0.01 to 0.03 µM. Take `CN(C)C(=O)c1nn2c(c1Cl)CN(c1nc(OC[C@@]34CCCN3C[C@H](F)C4)nc3c1COC(c1nc(N)ccc1C(F)(F)F)C3)CCC2` (stereo partly drawn) [compound 217, 5-(7-(6-amino-3-(trifluoromethyl)pyridin-2-yl)-2-(((2R,7aS)-2-fluorotetrahydro-1H-pyrrolizin-7a(5H)-yl)methoxy)-7,8-dihydro-5H-pyrano[4,3-d]pyrimidin-4-yl)-3-chloro-N,N-dimethyl-5,6,7,8-tetrahydro-4H-pyrazolo[1,5-a][1,4]diazepine-2-carboxamide]: the IC50 under setting [2] fell in the range of 0.101 to 0.5 µM and the IC50 under setting [3] was found to be 0.312 µM. Turning to `CN1CCOc2c(nn3c2CN(c2nc(OC[C@@]45CCCN4C[C@H](F)C5)nc4c2CO[C@H](c2c(C(F)(F)F)ccc(N)c2F)C4)CCC3)C1=O` [212a, 11-((S)-7-(3-amino-2-fluoro-6-(trifluoromethyl)phenyl)-2-(((2R,7aS)-2-fluorotetrahydro-1H-pyrrolizin-7a(5H)-yl)methoxy)-7,8-dihydro-5H-pyrano[4,3-d]pyrimidin-4-yl)-4-methyl-3,4,9,10,11,12-hexahydro-8H-[1,4]diazepino[1′,2′:1,5]pyrazolo[3,4-f][1,4]oxazepin-5(2H)-one], the IC50 reads like this: under setting [2], > 0.5 µM; under setting [3], 0.81 µM. Turning to `Cc1c(C(=O)N(C)C)nn2c1CN(c1nc(OC[C@@]34CCCN3C/C(=C\F)C4)nc3c1CO[C@H](c1cc(N)cc(F)c1C(F)(F)F)C3)CCC2` [compound 417], the IC50 under setting [1] is < 0.01 µM.
